Results: US6617335B1, “Preparation and drug composition of bis-benzyl-isoquinoline class alkaloids” (Kanghong USA, Inc., priority 2002, dated 2003)

Tests used:
P388/adr [1] = assay: In vitro reversal of multi drug resistance to vinblastine in P388/adr cells; type: cell-based; conditions: vinblastine against multi drug resistance cell line P388/adr
Experimental: The IC50 value was in the range of 2-3 μg/mL, the reversal index against P388 was around 20, and most of the compounds completely reversed multi drug resistance of vinblastine-treated tumor cells.

[2] = tested on: Salmonella typhimurium TA97, TA98, TA100 and TA102; assay: Mutagenicity test (Ames method); conditions: plate method, dosages 100, 20, 4, 0.8, 0.16
Experimental: Determinations were carried out the using Salmonella typhimurium […] mutants types TA97, TA98, TA100 and TA102 to detect the mutagenicity of said compound. Mutagenicity was determined according to the method of Ames. (Ames, B., et al. (1973). An improved bacterial test system for the detection and classification of mutagens and carcinogens. Proc. Natl. Acad. Sci. USA 70: 782-786). In the plate method with dosages of 100, 20, 4, 0.8, and 0.16, compared with the blank control, (self made compound S9), counting the number of reversed mutative colony changed, to decide the mutagenicity of the test compound.

P388/adr cell line = assay: Isotopic determination of vincristine concentration in the P388/adr cell line; type: cell-based; conditions: P388/adr MDR cells; for inhibition of MDR activity / intracellular isotope marker concentration compared with verapamil: three levels; for intracellular vinca alkaloid concentration, combined therapy vs other known MDR inhibitors (tetrandrine, fangchinoline, cepharanthine): low, middle and high dosages
Experimental: Method: By using an isotope marker, differences were observed between intracellular vincristine concentrations during combined therapy and single therapy. […] The dosages were arranged in low, middle and high groups in parallel studies, results were calculated in dpm of vincristine concentration in the cell.

P388/adr [3] = assay: In vivo study of inhibition of MDR activity, nude mice xenografted with P388/adr
Experimental: Method: Using defined characteristics of […] P388/adr cell line in a nude mice model to determine the inhibition of MDR activity. Quantitative subcutaneous injection of P388 cell into the armpit of nude mice was followed for a certain period of time. […] The formulations and a cepharanthine control were administered by intraperitoneal injection for 2 to 4 times a day, and the animals consecutively observed for 10 days. Life span and survival rates were calculated.

in vivo = assay: in vivo
Experimental: Method: LDs50 values for the compounds of formula (I) were calculated according to the method of Gaddum and Gu Han Yi.

For cepharanthine, the IC50 value (P388/adr [1]) was 11.7 mg/L.
For CCCOc1c(OC)cc2c3c1Oc1cc4c(cc1OC)CCN(C)[C@H]4Cc1ccc(cc1)Oc1cc(ccc1OC)C[C@@H]3N(C)CC2, the melting point was 175 to 176 °C.
For COc1ccc2cc1Oc1ccc(cc1)C[C@H]1c3cc(c(OC)cc3CCN1C)Oc1c(OC)c(OC)c(Br)c3c1[C@H](C2)N(C)CC3 [Example 8, 5-bromo-tetrandrine], the “mutagenicity (Ames)” value [2] was “void of mutagenicity”, the “inhibition of MDR activity / intracellular isotope marker concentration compared with verapamil” value (P388/adr cell line) was “corresponding to verapamil” and the “inhibition of MDR activity / intracellular isotope marker concentration compared with verapamil” value (P388/adr cell line; listed as Example No. 8) was “comparable to the available agent verapamil”. For the same compound, the “intracellular vinca alkaloid concentration, combined therapy vs monotherapy” value (P388/adr cell line; isotope marker) was “significantly higher”, the “intracellular vinca alkaloid concentration, combined therapy vs other known MDR inhibitors (tetrandrine, fangchinoline, cepharanthine)” value (P388/adr cell line; isotope marker) was “significantly higher” and the “intracellular vinca alkaloid concentration, combined therapy vs other known MDR inhibitors (tetrandrine, fangchinoline, cepharanthine)” value (P388/adr cell line; isotope marker, listed as Example No. 8) was “higher”. For the same compound, the “inhibition of MDR activity of vinblastine against P388/adr compared with cepharanthine (VIII)” value (P388/adr [3]) was “significantly stronger”, the “increase of survival rates by the combined therapy” value (P388/adr [3]; combined therapy with vinca alkaloid vs monotherapy, intraperitoneal, observed 10 days) was 37.7% and the LD50 at 1 month (in vivo; in vivo, route not stated at this place, read-out: acute toxicity LD50) was > 125 mg/kg. The “LDs50, intraperitoneal administration” value (in vivo; intraperitoneal) was > 368 mg/kg bodyweight and the “LDs50, intravenous administration” value (in vivo; intravenous) was > 125 mg/kg bodyweight.
Work on COc1cc(Br)c2cc1Oc1ccc(cc1)C[C@H]1c3cc(c(OC)cc3CCN1C)Oc1c(OC)c(OC)c(Br)c3c1[C@H](C2)N(C)CC3 [Example 9, 5,14-dibromo-tetrandrine] yielded a melting point of 184 to 185 °C.
